Assay [1] deals with T1, CDK7/Cyclin H/MAT-1 complex (Homo sapiens, UniProt P50613).
T1 construct: Human CDK7 (amino acids 1-346); His6 (N); TEV protease cleavage site (N); made in house; host or cells: baculovirus-SF9 insect cells
Nature of the assay: Absorbance kinetic assay (20 nM CDK7/Cyclin H/MAT-1 complex). The class given is biochemical. The method, boiled down: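 Trimeric complex (His6-TEV CDK7 1-346, MAT1 1-309, cyclin H 1-323) from Sf9 cells, at 20 nM, phosphorylating RNA Pol II-derived CDK7/9-tide; ADP coupled via PK/LDH to NADH depletion read at 340 nm every 2 min for 8 h. Steady-state slopes gave % inhibition; IC50 from 11-point Hill fit.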

In assay [2] the target is T1, CDK7/Cyclin H/MAT-1 complex. In words: Flint assay, end-point fluorescence (5 nM CDK7/Cyclin H/MAT-1 complex). The class given is biochemical. The method, boiled down:
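Trimeric complex of His6-TEV-tagged human CDK7 (1-346), MAT1 (1-309) and cyclin H (1-323), co-expressed in Sf9 cells, at 5 nM final, with substrates and coupling reagents as in the absorbance assay; 24 h reaction. End-point NADH fluorescence decrease (ex 340/em 440 nm); % inhibition versus no-inhibitor and full-inhibition controls, IC50 from four-parameter Hill fit.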

Bounds are passed on as bounds.

T1 sequence (P50613 whole entry, the tested form may be a part): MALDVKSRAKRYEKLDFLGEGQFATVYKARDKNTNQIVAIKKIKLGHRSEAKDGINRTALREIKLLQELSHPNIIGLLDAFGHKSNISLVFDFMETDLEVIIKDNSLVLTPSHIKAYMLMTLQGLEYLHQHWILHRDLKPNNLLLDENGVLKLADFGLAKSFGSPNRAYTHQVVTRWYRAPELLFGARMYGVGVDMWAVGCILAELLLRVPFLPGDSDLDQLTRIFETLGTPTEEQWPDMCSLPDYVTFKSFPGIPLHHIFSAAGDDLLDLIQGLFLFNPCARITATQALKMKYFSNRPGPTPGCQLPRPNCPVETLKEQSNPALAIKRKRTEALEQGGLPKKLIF
T1 sequence (P51946 whole entry partner, the tested form may be a part): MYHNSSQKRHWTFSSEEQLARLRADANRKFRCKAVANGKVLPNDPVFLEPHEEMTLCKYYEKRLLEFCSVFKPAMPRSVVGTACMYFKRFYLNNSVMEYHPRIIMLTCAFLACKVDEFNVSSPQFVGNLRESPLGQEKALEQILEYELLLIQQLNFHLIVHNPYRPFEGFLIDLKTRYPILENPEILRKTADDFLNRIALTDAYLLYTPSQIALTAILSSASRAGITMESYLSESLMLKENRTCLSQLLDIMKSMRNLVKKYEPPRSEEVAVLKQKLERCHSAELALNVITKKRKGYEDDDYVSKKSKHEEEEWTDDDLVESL
T1 sequence (P51948 whole entry partner, the tested form may be a part): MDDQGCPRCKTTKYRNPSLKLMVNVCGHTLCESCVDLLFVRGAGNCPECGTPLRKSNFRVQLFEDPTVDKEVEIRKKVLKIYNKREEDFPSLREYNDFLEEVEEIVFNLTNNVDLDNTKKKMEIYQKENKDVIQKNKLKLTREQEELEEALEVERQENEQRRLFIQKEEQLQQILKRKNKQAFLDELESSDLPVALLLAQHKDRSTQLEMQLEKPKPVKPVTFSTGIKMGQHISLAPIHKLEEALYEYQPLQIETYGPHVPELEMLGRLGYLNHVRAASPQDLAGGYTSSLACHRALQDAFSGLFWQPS

`C[C@@H]1Cc2cnc(NCc3cc(C(F)F)n(C)n3)nc2CN1C(=O)[C@H]1CCN(C)C[C@@H]1c1ccccc1` [Compound 56]: the “CDK7 (20 nM) pIC50” value in assay [1] was 6.85. The “CDK7 (5 nM) pIC50” value in assay [2] came to 7.44.
As for `C[C@@H]1Cc2cnc(NC3CCOCC3)nc2CN1C(=O)[C@@H]1CC[C@@H](N(C)C)CN1c1ccccc1` (mixture of isomers) [Compound 167], in assay [1], the “CDK7 (20 nM) pIC50” value is given as 6.25. Besides, the “CDK7 (5 nM) pIC50” value in assay [2] is listed as 6.95.
For `Cc1cn(C)nc1CNc1ncc2c(n1)CN(C(=O)[C@H]1CCN(C)C[C@@H]1c1ccccc1)[C@H](C)C2` [Compound 61], in that order: greater than 8.01 and 7.97.
For `C[C@@H]1Cc2cnc(NC3CCOCC3)nc2CN1C(=O)[C@H]1CCN(C)C[C@@H]1c1ccccc1` [Compound 47], in that order: greater than 7.7 and 8.3.
The corresponding values for `C[C@@H]1Cc2cnc(Nc3cnn(C)c3)nc2CN1C(=O)[C@H]1CCN(C)C[C@@H]1c1ccccc1` [Compound 82] are greater than 8.01 and 8.67.
